Columns and labels:
[1] = Dose-response study, Luc mRNA intramuscular; type: in vivo; conditions: mRNA doses 0.25, 0.05 and 0.01 mg/kg
Experimental: Samples containing firefly luciferase (Luc) mRNA were administered intramuscularly to evaluate protein expression. […] As the dose decreased, the injection site's expression proportion increased. A26, A47, and B38 maintained injection site flux levels of 0.3-3×10^10 (p/s) across all doses.

LNP zeta potential = type: physicochemical; conditions: mRNA LNP
mice = test: Bioluminescent study, intramuscular injection of F-luc mRNA LNPs; type: in vivo; conditions: F-luc luminescence flux normalized to MC3; 0.25 mg/kg intramuscular, mice n=3, 6-hour time point
In short: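 Mice (n=3) received LNP-formulated F-luc mRNA at 0.25 mg/kg intramuscularly. Bioluminescence was read 6 h after dosing. Test LNPs were made with an MC3 formulation, and PBS served as control in some groups.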

[2] = LNP size and PDI by dynamic light scattering; type: physicochemical; conditions: for PDI / Size (nm): mRNA LNP, cationic lipid/DSPC/cholesterol/PEG-lipid 50:10:38.5:1.5; for particle sizes by dynamic light scattering (FIG. 22): mRNA-loaded LNPs
[3] = LNP encapsulation efficiency (Quant-it Ribogreen); type: physicochemical; conditions: mRNA LNP, cationic lipid/DSPC/cholesterol/PEG-lipid 50:10:38.5:1.5

SMILES: CCCCCCCCNC(=O)C(CCCCCCCC)N(CCCN(C)C)C(=O)CCCCCCC(=O)OC(CCCCCCCC)CCCCCCCC (stereo not shown) [Compound A26]
- dose-response of Luc expression [1]: clear dose-response gradient
- Zeta potential (mV) (LNP zeta potential): 2.30 mV
- Relative Total flux (mice): A (A: ≥2)
- PDI [2]: 0.11
- Size (nm) [2]: 94.21 nm
- particle sizes by dynamic light scattering (FIG. 22) [2]: approximately 100 nm
- Encapsulation efficiency (%) [3]: 94.09%

SMILES: CCCCCCCCNC(=O)C(CCCCCCCC)N(CCCN(CCO)CCO)C(=O)CCCCCCC(=O)OC(CCCCCCCC)CCCCCCCC (stereo not shown) [Compound B26]
- Zeta potential (mV) (LNP zeta potential): −1.65 mV
- Relative Total flux (mice): D (D: <0.1.)
- PDI [2]: 0.22
- Size (nm) [2]: 105.63 nm
- Encapsulation efficiency (%) [3]: 92.99%

SMILES: CCCCCCCCNC(=O)C(CCCCCCCC)N(CCN(CC)CCO)C(=O)CCCCCCC(=O)OC(CCCCCCCC)CCCCCCCC (stereo not shown) [Compound B29]
- Zeta potential (mV) (LNP zeta potential): 1.69 mV
- Relative Total flux (mice): A (A: ≥2)
- PDI [2]: 0.10
- Size (nm) [2]: 62.10 nm
- Encapsulation efficiency (%) [3]: 93.73%

SMILES: CCCCCCCCNC(=O)C(CCCCCCCC)N(CCCN(C)CCO)C(=O)CCCCCCC(=O)OC(CCCCCCCC)CCCCCCCC (stereo not shown) [Compound B30]
- Zeta potential (mV) (LNP zeta potential): 3.81 mV
- Relative Total flux (mice): A (A: ≥2)
- PDI [2]: 0.08
- Size (nm) [2]: 64.27 nm
- Encapsulation efficiency (%) [3]: 93.97%

SMILES: CCCCCCCCNC(=O)C(CCCCCCCC)N(CCN(C)CCO)C(=O)CCCCCCC(=O)OC(CCCCCCCC)CCCCCCCC (stereo not shown) [Compound B31]
- Zeta potential (mV) (LNP zeta potential): 4.83 mV
- Relative Total flux (mice): A (A: ≥2)
- PDI [2]: 0.10
- Size (nm) [2]: 61.00 nm
- Encapsulation efficiency (%) [3]: 95.03%

SMILES: CCCCCCCCNC(=O)C(CCCCCCCC)N(CCN(CCO)CCO)C(=O)CCCCCCC(=O)OC(CCCCCCCC)CCCCCCCC (stereo not shown) [Compound B32]
- Zeta potential (mV) (LNP zeta potential): 7.87 mV
- Relative Total flux (mice): A (A: ≥2)
- PDI [2]: 0.32
- Size (nm) [2]: 119.93 nm
- Encapsulation efficiency (%) [3]: 93.95%

SMILES: CCCCCCCC/C=C\CCCCCCCCNC(=O)C(CCCCCCCC)N(CCCCCCCC/C=C\CCCCCCCC)C(=O)CCCN(C)C (stereo not shown) [Compound C1]
- Zeta potential (mV) (LNP zeta potential): −9.90 mV
- Relative Total flux (mice): B (B: ≥1 and <2)
- PDI [2]: 0.108
- Size (nm) [2]: 60.62 nm
- Encapsulation efficiency (%) [3]: 82.31%

SMILES: CCCCC/C=C\C/C=C\CCCCCCCCNC(=O)C(CCCCCCCC)N(CCCCCCCC/C=C\C/C=C\CCCCC)C(=O)CCCN1CCN(C)CC1 (stereo not shown) [Compound C5]
- Zeta potential (mV) (LNP zeta potential): −14.75 mV
- Relative Total flux (mice): D (D: <0.1.)
- PDI [2]: 0.198
- Size (nm) [2]: 64.58 nm
- Encapsulation efficiency (%) [3]: 91.26%

SMILES: CCCCCC/C=C\CCCCCCCC(C(=O)NCCCCCCCC/C=C\CCCCCCCC)N(CCCN(C)C)C(=O)CCCCCCC/C=C\CCCCCCCC (stereo not shown) [Compound C8]
- Zeta potential (mV) (LNP zeta potential): −0.77 mV
- Relative Total flux (mice): A (A: ≥2)
- PDI [2]: 0.24
- Size (nm) [2]: 78.44 nm
- Encapsulation efficiency (%) [3]: 82.17%

SMILES: CCCCCCCCCCCNC(=O)C(CCCCCCCC)N(CCN(C)CCN(C(=O)CCCCCCCCCC(=O)OC(CCCCCC)CCCCCC)C(CCCCCCCC)C(=O)NCCCCCCCCCC)C(=O)CCCCCCCCCC(=O)OC(CCCCCC)CCCCCC (stereo not shown) [Compound D4]
- Zeta potential (mV) (LNP zeta potential): −5.91 mV
- Relative Total flux (mice): C (C: ≥0.1 and <1)
- PDI [2]: 0.163
- Size (nm) [2]: 113.2 nm
- Encapsulation efficiency (%) [3]: 43.24%

SMILES: CCCCCCC(CCCCCC)OC(=O)CCCCCCCCCNC(=O)CN(CCN(C)CCN(CC(=O)NCCCCCCCCCC(=O)OC(CCCCCC)CCCCCC)C(=O)CCCCCCCCCC(=O)OC(CCCCCC)CCCCCC)C(=O)CCCCCCCCCC(=O)OC(CCCCCC)CCCCCC [Compound D5]
- Zeta potential (mV) (LNP zeta potential): −17.80 mV
- Relative Total flux (mice): A (A: ≥2)
- PDI [2]: 0.183
- Size (nm) [2]: 78.42 nm
- Encapsulation efficiency (%) [3]: 96.72%

SMILES: CCCCCCC(CCCCCC)OC(=O)CCCCCCCCCNC(=O)C(CCCCCCCCCC(=O)OC(CCCCCC)CCCCCC)N(CCCN(CCO)CCO)C(=O)CCCN(C)CCO (stereo not shown) [Compound E2]
- Zeta potential (mV) (LNP zeta potential): −9.45 mV
- Relative Total flux (mice): C (C: ≥0.1 and <1)
- PDI [2]: 0.143
- Size (nm) [2]: 78.64 nm
- Encapsulation efficiency (%) [3]: 91.65%

SMILES: CCCCCCC(CCCCCC)OC(=O)CCCCCCCCCNC(=O)C(CCCCCCCCCC(=O)OC(CCCCCC)CCCCCC)N(CCCN(CCO)CCO)C(=O)CCCN(C)C (stereo not shown) [Compound E3]
- Zeta potential (mV) (LNP zeta potential): −2.06 mV
- Relative Total flux (mice): C (C: ≥0.1 and <1)
- PDI [2]: 0.166
- Size (nm) [2]: 93.07 nm
- Encapsulation efficiency (%) [3]: 89.28%

SMILES: CCCCCCC(CCCCCC)OC(=O)CCCCCCCCCNC(=O)C(CCCCCCCCCC(=O)OC(CCCCCC)CCCCCC)N(CCCN(CCO)CCO)C(=O)CCCN(CC)CC (stereo not shown) [Compound E4]
- Zeta potential (mV) (LNP zeta potential): 5.03 mV
- Relative Total flux (mice): A (A: ≥2)
- PDI [2]: 0.205
- Size (nm) [2]: 95.73 nm
- Encapsulation efficiency (%) [3]: 95.18%

SMILES: CCCCCCC(CCCCCC)OC(=O)CCCCCCCCCNC(=O)C(CCCCCCCCCC(=O)OC(CCCCCC)CCCCCC)N(CCCN(C)CCO)C(=O)CCCN(C)CCO (stereo not shown) [Compound E5]
- Zeta potential (mV) (LNP zeta potential): −19.40 mV
- Relative Total flux (mice): B (B: ≥1 and <2)
- PDI [2]: 0.183
- Size (nm) [2]: 84.36 nm
- Encapsulation efficiency (%) [3]: 93.90%

SMILES: CCCCCCC(CCCCCC)OC(=O)CCCCCCCCCNC(=O)C(CCCCCCCCCC(=O)OC(CCCCCC)CCCCCC)N(CCCN(C)C)C(=O)CCCN(C)C (stereo not shown) [Compound E6]
- Zeta potential (mV) (LNP zeta potential): −6.48 mV
- Relative Total flux (mice): C (C: ≥0.1 and <1)
- PDI [2]: 0.246
- Size (nm) [2]: 81.59 nm
- Encapsulation efficiency (%) [3]: 96.54%

SMILES: CCCCCCC(CCCCCC)OC(=O)CCCCCCCCCNC(=O)C(CCCCCCCCCC(=O)OC(CCCCCC)CCCCCC)N(CCCN(CC)CC)C(=O)CCCN(CC)CC (stereo not shown) [Compound E7]
- Zeta potential (mV) (LNP zeta potential): −16.13 mV
- Relative Total flux (mice): C (C: ≥0.1 and <1)
- PDI [2]: 0.13
- Size (nm) [2]: 95.52 nm
- Encapsulation efficiency (%) [3]: 92.11%

SMILES: CCCCCCC(CCCCCC)OC(=O)CCCCCCCCCNC(=O)C(CCCCCCCCCC(=O)OC(CCCCCC)CCCCCC)N(CCCN1CCCC1)C(=O)CCCN1CCCC1 (stereo not shown) [Compound E8]
- Zeta potential (mV) (LNP zeta potential): −18.58 mV
- Relative Total flux (mice): B (B: ≥1 and <2)
- PDI [2]: 0.182
- Size (nm) [2]: 92.75 nm
- Encapsulation efficiency (%) [3]: 96.30%

SMILES: CCCCCCC(CCCCCC)OC(=O)CCCCCCCCCNC(=O)C(CCCCCCCCCC(=O)OC(CCCCCC)CCCCCC)N(CCCN1CCN(C)CC1)C(=O)CCCN1CCN(C)CC1 (stereo not shown) [Compound E9]
- Zeta potential (mV) (LNP zeta potential): −15.91 mV
- Relative Total flux (mice): C (C: ≥0.1 and <1)
- PDI [2]: 0.593
- Size (nm) [2]: 91.81 nm
- Encapsulation efficiency (%) [3]: 82.13%

SMILES: CCCCCCC(CCCCCC)OC(=O)CCCCCCCCCNC(=O)C(CCCCCCCCCC(=O)OC(CCCCCC)CCCCCC)N(CCN1CCN(CCO)CC1)C(=O)CCN1CCN(CCO)CC1 (stereo not shown) [Compound E10]
- Zeta potential (mV) (LNP zeta potential): −16.71 mV
- Relative Total flux (mice): C (C: ≥0.1 and <1)
- PDI [2]: 0.185
- Size (nm) [2]: 104.5 nm
- Encapsulation efficiency (%) [3]: 69.71%

SMILES: CCCCCCC(CCCCCC)OC(=O)CCCCCCCCCNC(=O)C(CCCCCCCCCC(=O)OC(CCCCCC)CCCCCC)N(CCCN1CCN(CO)CC1)C(=O)CCCN1CCN(CCO)CC1 (stereo not shown) [Compound E11]
- Zeta potential (mV) (LNP zeta potential): 0.85 mV
- Relative Total flux (mice): B (B: ≥1 and <2)
- PDI [2]: 0.158
- Size (nm) [2]: 85.75 nm
- Encapsulation efficiency (%) [3]: 93.77%

SMILES: CCCCC/C=C\C/C=C\CCCCCCCCC(CCCCCCCC/C=C\C/C=C\CCCCC)OC(=O)CCCN(C)C [DLin-MC3, reference compound]
- Zeta potential (mV) (LNP zeta potential): −3.25 mV
- Relative Total flux (mice): B (B: ≥1 and <2)
- PDI [2]: 0.036
- Size (nm) [2]: 87.75 nm
- Encapsulation efficiency (%) [3]: 95.24%

SMILES: CCCCCCCCCCCOC(=O)CCCCCN(CCO)CCCCCCCC(=O)OC(CCCCCCCC)CCCCCCCC [SM-102, reference compound]
- Zeta potential (mV) (LNP zeta potential): −1.23 mV
- Relative Total flux (mice): A (A: ≥2)
- PDI [2]: 0.058
- Size (nm) [2]: 89.08 nm
- particle sizes by dynamic light scattering (FIG. 22) [2]: approximately 100 nm
- Encapsulation efficiency (%) [3]: 96.25%
